Test results published in US8435562B2 (XenoPort, Inc., priority 2009, dated 2013).

Test: Powder X-ray diffraction analysis of anhydrous-to-hydrate form conversion (granules, tablets)
Assay type: physicochemical
Procedure: Anhydrous (2R)-2-phenylcarbonyloxypropyl (2S)-2-amino-3-(3,4-dihydroxyphenyl)propanoate mesylate (138.6 g) and hydroxypropylmethyl cellulose (1.4 g) (Methocer HPMC E4M, Dow Chemical) were weighed and sieved through an 18-mesh screen. The screened materials were placed into a high shear wet granulator (KG-5 high sheer blender, 5 L bowl, Key International) and pre-blended for 2 min. […] The material was blended for ca. 10-20 min at an impeller speed of 250 rpm and a chopper speed of 2,000 rpm, and a water spray rate of 2 g/min. After granulation the wet granules were milled through a 16-mesh screen with a brush. The milled wet granules were placed in a dryer (UniGlatt Fluid Bed Dryer, Glatt GmbH) and dried for 24 min at an inlet temperature of 65° C. with airflow adjusted at 8-10 SCFM. The dried granules were milled by manually pressing the granules through a screen.
Powder X-ray diffraction (PXRD) analysis was performed using a PANalytical X′Pert Pro X-ray diffractometer. The X-ray source was Cu kα1 with output voltage of 45 kV and current of 40 mA. The instrument employed para-focusing Bragg-Brentano geometry with incident divergence and scattering slits set at 1/16° and ⅛°, respectively. Soller slits with a 0.04-mm radius were used for both the incident and diffracted beams to remove axial divergence. Powder samples (9-12 mg) were gently pressed onto a single crystal silicon sample holder to form a smooth surface, and samples were spun at 8 sec/revolution throughout the data acquisition process. The samples were scanned from 2° to 40°(2θ°) with a step size of 0.017° (2θ angle) and a scan speed of 0.067°/sec. Data acquisition was controlled and analyzed with X′Pert Data Collector Software (version 2.2d) and X′Pert Data Viewer (version 1.2c), respectively.

## CS(=O)(=O)O.C[C@H](COC(=O)[C@@H](N)Cc1ccc(O)c(O)c1)OC(=O)c1ccccc1 [compound 1, (2R)-2-Phenylcarbonyloxypropyl (2S)-2-amino-3-(3,4-dihydroxyphenyl)propanoate mesylate]
With 1% sodium lauryl sulfate
  Crystal form by PXRD after high shear wet granulation: did not transform to the hydrate
Without sodium lauryl sulfate, 7 wt-% water
  Crystal form by PXRD after high shear wet granulation: a combination of the anhydrous and hydrated forms
Without sodium lauryl sulfate, 15 wt-% water
  Crystal form by PXRD after high shear wet granulation: predominantly crystalline (2R)-2-phenylcarbonyloxypropyl (2S)-2-amino-3-(3,4-dihydroxyphenyl)propanoate mesylate, hydrate
Without sodium lauryl sulfate, water content of 9 wt-% and 15 wt-% (FIG. 3 patterns B and C)
  Crystal form by PXRD after high shear wet granulation: characteristic of the hydrated form
